Measured values from patent publication US20020176882A1, “Additive the improvement and/or stabilization of the keeping quality of microbially perishable products” (priority 1997, published 2002).

How the values were obtained:
[1] = test system: molds; experiment: quantitative suspension assay, molds; format: cell-based; conditions: control 10^5/ml
Source text: (§1) Bacteriological assay methods for additives quantitative suspension assay II (suspension test)
(§2) Microorganisms: aerobic microorganisms (total germ count), Enterobacteriaceae, Enterococci, Lactobacilli, yeasts, molds. These methods are capable of determining the effects of the additives as a function of dosage and duration of action using different microorganisms on different nutrient media.
(§3) Quantitative suspension assay II—suspension test a) Inoculate test germ suspension with the desired test germ, e.g., 10^6/ml, expose for 1-60 min. Place desired formulation to be tested into desiganted germ suspension tubes (different percentages). Await end of exposure times and pour or inoculate into the appropriate agar plates, depending on the germ. […]
(§4) b) Treat the test germ suspension with the desired formulation to be tested (see a) prior to inoculating the test germs (see a). Await end of exposure times and then inoculate with the respective test germs, and inoculate or pour into the appropriate agar plates depending on the test germ.

[2] = test system: Lactobacilli; experiment: quantitative suspension assay, Lactobacilli; format: cell-based; conditions: control 10^5/ml
Source text: as §1, §2, §3, §4

[3] = test system: aerobic microorganisms (total germ count); experiment: quantitative suspension assay, total germ count; format: cell-based; conditions: control 10^8/ml
Source text: as §1, §2, §3, §4

[4] = test system: Enterobacteria; experiment: quantitative suspension assay, Enterobacteria; format: cell-based, Enterobacteriaceae; conditions: control 10^8/ml
Source text: as §1, §2, §3, §4

[5] = test system: yeasts; experiment: quantitative suspension assay, yeasts; format: cell-based; conditions: control 10^5/ml
Source text: as §1, §2, §3, §4

[6] = test system: Enterococci; experiment: quantitative suspension assay, Enterococci; format: cell-based; conditions: control 10^8/ml
Source text: as §1, §2, §3, §4
Note: test concentration or dose not given here.

Compound	molds germ count ([1]; 5 min exp. time)	molds germ count ([1]; 15 min exp. time)	molds germ count ([1]; 60 min exp. time)	Lactobacilli germ count ([2]; 5 min exp. time)	Lactobacilli germ count ([2]; 15 min exp. time)	Lactobacilli germ count ([2]; 60 min exp. time)	total germ count ([3]; 5 min exp. time)	total germ count ([3]; 15 min exp. time)	total germ count ([3]; 60 min exp. time)	Enterobacteria germ count ([4]; 5 min exp. time)	Enterobacteria germ count ([4]; 15 min exp. time)	Enterobacteria germ count ([4]; 60 min exp. time)	yeasts germ count ([5]; 5 min exp. time)	yeasts germ count ([5]; 15 min exp. time)	yeasts germ count ([5]; 60 min exp. time)	Enterococci germ count ([6]; 5 min exp. time)	Enterococci germ count ([6]; 15 min exp. time)	Enterococci germ count ([6]; 60 min exp. time)
OCC(O)CO [Glycerol]	10^5 /ml	10^5 /ml	10^5 /ml	10^5 /ml	10^5 /ml	10^5 /ml	10^6 /ml	10^8 /ml	10^8 /ml	10^7 /ml	10^7 /ml	10^7 /ml	10^5 /ml	10^5 /ml	10^5 /ml	10^8 /ml	10^8 /ml	10^8 /ml
tannin [Formulation 1a]	10^4 /ml	10^4 /ml	10^4 /ml	10^5 /ml	10^4 /ml	10^4 /ml	10^6 /ml	10^6 /ml	10^6 /ml	10^6 /ml	10^6 /ml	10^6 /ml	10^4 /ml	10^4 /ml	10^4 /ml	10^7 /ml	10^6 /ml	10^6 /ml
CC(O)CO (stereo not drawn) [Propylene glycol]	10^5 /ml	10^5 /ml	10^5 /ml	10^5 /ml	10^5 /ml	10^5 /ml	10^9 /ml	10^9 /ml	10^9 /ml	10^8 /ml	10^8 /ml	10^8 /ml	10^5 /ml	10^5 /ml	10^5 /ml	10^8 /ml	10^8 /ml	10^8 /ml
CC(O)C(=O)O (stereo not drawn) [Lactic acid]	10^5 /ml	10^5 /ml	10^5 /ml	10^5 /ml	10^4 /ml	10^4 /ml	10^7 /ml	10^7 /ml	10^7 /ml	10^6 /ml	10^6 /ml	10^6 /ml	10^5 /ml	10^5 /ml	10^5 /ml	10^7 /ml	10^7 /ml	10^7 /ml
OCc1ccccc1 [Benzyl alcohol]	10^5 /ml	10^4 /ml	10^4 /ml	10^5 /ml	10^5 /ml	10^5 /ml	10^8 /ml	10^7 /ml	10^7 /ml	10^7 /ml	10^7 /ml	10^7 /ml	10^5 /ml	10^4 /ml	10^4 /ml	10^8 /ml	10^7 /ml	10^7 /ml
